The text below walks through data of ChEMBL document CHEMBL3727343, “Agent for inhibiting odor of pyrazine derivatives” (2013).

The structures appear in SMILES notation. Active and inactive are the calls of the source. The rule behind the calls is not given here.

Test [1] addresses T1, Olfactory receptor 5K1 (Homo sapiens) (UniProt Q8NHB7).
T1 sequence (whole entry): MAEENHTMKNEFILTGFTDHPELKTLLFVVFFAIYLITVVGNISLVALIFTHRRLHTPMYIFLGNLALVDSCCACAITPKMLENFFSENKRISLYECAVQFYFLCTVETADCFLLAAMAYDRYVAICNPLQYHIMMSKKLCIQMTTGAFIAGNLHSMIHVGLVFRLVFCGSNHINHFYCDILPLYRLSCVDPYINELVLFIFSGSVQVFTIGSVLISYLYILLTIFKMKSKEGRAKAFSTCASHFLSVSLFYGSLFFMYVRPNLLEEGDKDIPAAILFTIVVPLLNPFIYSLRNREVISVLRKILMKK
Briefly: Antagonist activity at human OR5K1 expressed in HEK293 cells assessed as inhibition of 2,6-dimethylpyrazine-induced response at 100 uM by luciferase reporter gene assay. The class given is functional, cell-based. On the technique in general: A reporter such as luciferase makes a cellular process visible.

The species entered for a further test is Homo sapiens. Briefly: Inhibition of 2,6-dimethylpyrazine-induced odor assessed as strength of odor on cloth smelled by subjects. The class given is functional, organism-based.

Take `O=C(OCCc1ccccc1)c1ccccc1O`: the inhibition in test [1] was more than 75%.
As for `CC(=O)c1ccc2ccccc2c1`, the inhibition in test [1] was more than 50%. In the test filed under Homo sapiens, the inhibition result was “Active”.
With `CC(=O)/C=C/C1=C(C)CCCC1(C)C`, in test [1], the inhibition is more than 75%. Besides, the inhibition entry in the test listed under Homo sapiens is “Active”.
Consider `CC(C)=CCCC(C)CC=O` (configuration not stated), for which the inhibition in test [1] was more than 50%.
Take `CC(=O)c1cc(C(C)(C)C)cc2c1CCC2(C)C`: the inhibition in test [1] is more than 40%.
Regarding `CC(C=O)C1CCCCC1` (configuration not stated), in test [1], the inhibition was more than 50%.
Take `CCOCOC1CCCCCCCCCCC1`: the inhibition in test [1] was more than 50%.
On the same count and under the same terms, in the case of `CC(C)=CCC/C(C)=C/C=O` it was more than 75%.
Regarding `CC1=CC(O)CC(C)C2CC(=C(C)C)CC12` (configuration not stated), the inhibition in test [1] is more than 75%.
Same read-out and setting: then `O=C1CCCCC/C=C\CCCCCCCCO1`, with more than 50%.
The same measure, in the same setting: in the case of `CC(C)[C@@H]1CC[C@@H](C)C[C@H]1O` it was more than 50%; in that of `C=CCc1ccc(O)c(OC)c1`, more than 40%; in that of `CC12CCC(C3(CCCC3)C1=O)C2(C)C` (configuration not stated), more than 50%.
On to `C=C(OCC)C1C(C)(C)CC(=O)CC1(C)C`, for which, in test [1], the inhibition is more than 50%.
Same read-out and setting: in the case of `CC(=O)C1=C(C)[C@@H]2C[C@@]3(C1)[C@H](C)CC[C@H]3C2(C)C` it was more than 50%.
For the compound `CC(C=O)Cc1ccc2c(c1)OCO2` (configuration not stated), the inhibition in test [1] is more than 40%. The inhibition result in the test filed under Homo sapiens is “Active”.
Turning to `CC(C)=CCCC(C)CCOCC=O` (configuration not stated), in test [1], the inhibition is more than 40%.
In the case of `CC1(C)CCCC2(C)C1CCC1(C)OCCC12` (configuration not stated), the inhibition in test [1] is more than 50%.
On to `C/C=C/c1ccc(OCc2ccccc2)c(OC)c1`, for which the inhibition in test [1] is more than 50%.
Still for that read-out and setting: then `CC(=O)c1c(C)c([N+](=O)[O-])c(C(C)(C)C)c([N+](=O)[O-])c1C`, with more than 40%.
`CC1=CCC(C(C)CC2CCCC2=O)CC1` (configuration not stated): in test [1], the inhibition is more than 50%.
On the same count and under the same terms, then `CCCCCC/C(C=O)=C\c1ccccc1`, with more than 50%; and `CC(=O)C1(C)CC2=C(CCCC2(C)C)CC1C` (configuration not stated), with more than 75%; and `O=C/C=C/c1ccccc1`, with more than 50%.
`CC(=O)/C(C)=C/C1C(C)=CCCC1(C)C` (configuration not stated): in test [1], the inhibition was more than 50%. In the test filed under Homo sapiens, the inhibition result was “Active”.
For `O=C1CCCCCCCCCCCC(=O)OCCO1`, in test [1], the inhibition is more than 40%.
On the same count and under the same terms, in the case of `Cc1ccc(C(C)C)c(O)c1` it was more than 75%.
Same read-out and setting: in the case of `CC(C)[C@H]1CC[C@@H](CO)CC1` it was more than 40%; in that of `OCCCCCCc1ccccc1`, more than 40%.
Take `CC(=O)c1cc2c(cc1C)C(C)(C)C(C)CC2(C)C` (configuration not stated): in test [1], the inhibition is more than 75%.
The same measure, in the same setting: then `CC(=O)O[C@]1(C)CC[C@H]2C(C)(C)[C@@H]3C[C@@]21CC[C@H]3C`, with more than 50%.
Consider `CC1=CCC(C/C=C(\C)CO)C1(C)C` (configuration not stated), for which the inhibition in test [1] was more than 50%. In the test filed under Homo sapiens, the inhibition entry was “Active”.
As to `CC(C=O)Cc1ccc(C(C)C)cc1` (configuration not stated), the inhibition in test [1] is more than 75%.
Consider `CC(C=O)c1ccccc1` (configuration not stated), for which the inhibition in test [1] was more than 50%.
On to `CCC(O)COC1CCCCC1C(C)(C)C` (configuration not stated), for which the inhibition in test [1] was more than 75%. Besides, the inhibition entry in the test listed under Homo sapiens is “Active”.
The like results for `CC(C)=CCC/C(C)=C/CO` were, in that order, more than 40% and “Active”.
Regarding `C[C@@H]1CCCCCCCCCCCCC(=O)C1`, the inhibition in test [1] was more than 50%.
Take `CC(C=O)Cc1ccc(C(C)(C)C)cc1` (configuration not stated): in test [1], the inhibition is more than 50%. For the same compound, in the test listed under Homo sapiens, the inhibition entry was “Active”.
Turning to `C[C@@H]1[C@@H]2C(=O)C[C@H]3[C@@H]2C(C)(C)CCC[C@]13C`, the inhibition in test [1] is more than 75%.
On to `CC1=CC(C)C(C=O)CC1` (configuration not stated), for which the inhibition in test [1] was more than 40%. In the test filed under Homo sapiens, the inhibition result is “Active”.
As to `CC1=CC(C)C(C)C(C=O)C1` (configuration not stated), the inhibition in test [1] is more than 40%.
In the case of `C=CCCC(=O)C1=CCCC(C)(C)C1`, in test [1], the inhibition is more than 40%. Besides, the inhibition result in the test listed under Homo sapiens was “Active”.
The like results for `CC1C/C=C/CCCCCCCCCC(=O)C1` (configuration not stated) were, in that order, more than 50% and “Active”.
The like results for `C/C=C/C(=O)C1=C(C)C=CCC1(C)C` were, in that order, more than 40% and “Active”.
As for `CC/C(=C\CC1CC=C(C)C1(C)C)CO` (configuration not stated), in test [1], the inhibition is more than 75%.
Same read-out and setting: then `CCCCCCOC(=O)c1ccccc1O`, with more than 40%; and `CCCCC/C(C=O)=C\c1ccccc1`, with more than 75%.
`O=C1CCCCCCCCCCCCCCO1`: the inhibition in test [1] was more than 40%.
With `CCCCCCCC1CCC(=O)O1` (configuration not stated), the inhibition in test [1] was more than 50%. Further, the inhibition result in the test filed under Homo sapiens was “Active”.
`CO[C@]1(C)CC[C@H]2C(C)(C)[C@@H]3C[C@@]21CC[C@H]3C`: in test [1], the inhibition is more than 50%.
On the same count and under the same terms, then `CCCCCC1=C(C)CCC1=O`, with more than 40%.
In the case of `CC(C)CCCC(C)CCO` (configuration not stated), the inhibition in test [1] is more than 50%.
Take `CC/C=C(\C)C(O)CCCCC` (configuration not stated): the inhibition in test [1] is more than 75%. In addition, in the test listed under Homo sapiens, the inhibition result is “Active”.

Broadly, the inhibition is the relative decrease from the control value, in per cent.
